Source: patent EP0912518B1, “SUBSTITUTED PYRIDINES AS SELECTIVE CYCLOOXYGENASE-2 INHIBITORS” (Merck Frosst Canada & Co., priority 1996, dated 1998)

Tests used:
[1] = tested on: Rat Paw Edema; test: Rat paw edema assay (carrageenan); format: in vivo; conditions: male Sprague-Dawley rats, po 1 hr before carrageenan, paw volume 3 hr later; for ED50: Rattus norvegicus
Method: Male Sprague-Dawley rats (150-200 g) are fasted overnight and are given, po, either vehicle (1% methocel or 5% Tween 80) or a test compound. One hr later, a line is drawn using a permanent marker at the level above the ankle in one hind paw to define the area of the paw to be monitored. The paw volume (V0) is measured using a plethysmometer (Ugo-Basile, Italy) based on the principle of water displacement. The animals are then injected subplantarly with 50 µl of 1% carrageenan solution in saline (FMC Corp, Maine) into the paw using an insulin syringe with a 25-gauge needle (i.e. 500 µg carrageenan per paw). Three hr later, the paw volume (V3) is measured and the increases in paw volume (V3 - VO) are calculated. The animals are sacrificed by CO2 asphyxiation and the absence or presence of stomach lesions scored. Data is compared with the vehicle-control values and percent inhibition calculated. All treatment groups are coded to eliminate observer bias.

[2] = target: T1, COX-2 (Homo sapiens, UniProt P35354); test: Human whole blood assay, COX-2 (LPS-induced PGE2 production); format: cell-based; conditions: Cox-1 U937 IC50 divided by Cox-2 Whole Blood IC50
T1 sequence (P35354 18-604): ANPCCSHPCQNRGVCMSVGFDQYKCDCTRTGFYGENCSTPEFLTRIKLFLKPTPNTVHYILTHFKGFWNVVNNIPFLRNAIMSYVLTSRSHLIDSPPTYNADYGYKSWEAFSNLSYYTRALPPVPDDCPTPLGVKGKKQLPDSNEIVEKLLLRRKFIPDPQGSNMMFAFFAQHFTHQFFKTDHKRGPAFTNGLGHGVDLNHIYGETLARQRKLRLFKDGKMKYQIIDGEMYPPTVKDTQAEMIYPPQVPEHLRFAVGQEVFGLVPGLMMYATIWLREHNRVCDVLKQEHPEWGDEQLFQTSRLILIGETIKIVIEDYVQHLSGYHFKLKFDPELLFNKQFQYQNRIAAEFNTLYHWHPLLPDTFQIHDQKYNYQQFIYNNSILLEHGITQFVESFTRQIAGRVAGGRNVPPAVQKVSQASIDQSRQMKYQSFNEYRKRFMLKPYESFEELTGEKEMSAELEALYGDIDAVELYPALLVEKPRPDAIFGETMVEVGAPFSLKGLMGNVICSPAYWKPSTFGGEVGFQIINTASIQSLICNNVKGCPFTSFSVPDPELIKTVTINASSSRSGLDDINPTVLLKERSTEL
Source text: As well, platelets in whole blood contain a large amount of the COX-1 enzyme. Immediately following blood clotting, platelets are activated through a thrombin-mediated mechanism. […] Thus, the effect of test compounds on TxB2 levels following blood clotting can be examined and used as an index for COX-1 activity. Therefore, the degree of selectivity by the test compound can be determined by measuring the levels of PGE2 after LPS induction (COX-2) and TxB2 following blood clotting (COX-1) in the same assay. Fresh blood is collected in heparinized tubes by venipuncture from both male and female volunteers. The subjects have no apparent inflammatory conditions and have not taken any NSAIDs for at least 7 days prior to blood collection. […] At the end of the incubation, the blood is centrifuged at 12,000 x g for 5 minutes to obtain plasma. A 100µL aliquot of plasma is mixed with 400µL of methanol for protein precipitation. The supernatant is obtained and is assayed for PGE2 using a radioimmunoassay kit (Amersham, RPA#530) after conversion of PGE2 to its methyl oximate derivative according to the manufacturer's procedure.

[3] = target: T2, COX-1 (Homo sapiens, UniProt P23219); test: Assay of COX-1 activity from U937 cell microsomes; format: biochemical; conditions: U937 cells, PGE2 synthesis in presence of AA
T2 construct: endogenous in cells; host or cells: U937 (human) cells; 100,000 x g microsomal fraction
Method: Compounds are tested as inhibitors of cyclooxygenase activity in whole cell cyclooxygenase assays. […] Cells used for these assays are human osteosarcoma 143 cells (which specifically express COX-2) and human U-937 cells (which specifically express COX-1). […] U 937 cells are pelleted by centrifugation at 500 x g for 5 min and washed once with phosphate-buffered saline and repelleted. Cells are resuspended in homogenization buffer consisting of 0.1 M Tris-HCl, pH 7.4, 10 mM EDTA, 2 µg/ml leupeptin, 2 µg/ml soybean trypsin inhibitor, 2 µg/ml aprotinin and 1 mM phenyl methyl sulfonyl fluoride. […] Assays are performed in duplicate in a final volume of 250 µl. Initially, 5 µl of DMSO vehicle or drug in DMSO are added to 20 µl of 0.1 M Tris-HCl buffer, pH 7.4 containing 10 mM EDTA in wells of a 96-deepwell polypropylene titre plate. 200 µl of the microsomal preparation are then added and pre-incubated for 15 min at room temperature before addition of 25 µl of […] arachidonic acid in […] Tris-HCl and 10 mM EDTA, pH 7.4. Samples are incubated for 40 min at room temperature and the reaction is stopped by the addition of 25 µl of 1 N HCl. Samples are neutralized with 25 µl of 1 N NaOH prior to quantitation of PGE2 content by radioimmunoassay (Dupont-NEN or Amersham assay kits). […]

T2 sequence (P23219 24-599): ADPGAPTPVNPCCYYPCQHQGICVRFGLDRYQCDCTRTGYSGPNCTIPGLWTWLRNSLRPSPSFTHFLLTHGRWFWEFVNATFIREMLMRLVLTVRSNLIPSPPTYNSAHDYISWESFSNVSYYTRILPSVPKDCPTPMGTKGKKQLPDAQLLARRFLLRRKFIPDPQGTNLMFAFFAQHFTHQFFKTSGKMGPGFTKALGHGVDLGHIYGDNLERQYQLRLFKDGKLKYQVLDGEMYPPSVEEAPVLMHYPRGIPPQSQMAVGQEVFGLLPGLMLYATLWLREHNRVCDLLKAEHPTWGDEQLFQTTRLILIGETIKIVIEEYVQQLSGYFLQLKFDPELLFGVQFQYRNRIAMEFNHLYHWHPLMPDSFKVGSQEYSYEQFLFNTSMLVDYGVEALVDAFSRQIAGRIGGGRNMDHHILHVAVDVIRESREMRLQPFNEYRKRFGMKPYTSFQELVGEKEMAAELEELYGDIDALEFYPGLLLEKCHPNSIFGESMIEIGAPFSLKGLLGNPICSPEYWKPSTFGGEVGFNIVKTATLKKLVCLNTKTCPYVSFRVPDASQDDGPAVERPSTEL

CS(=O)(=O)c1ccc(-c2cc(C(F)(F)F)cnc2-c2cccnc2)cc1 [Example 7, 3-(4-Methylsulfonyl)phenyl-2-(3-pyridinyl)-5-trifluoromethylpyridine]
ED50 [1]: 1.7 mg/kg

CS(=O)(=O)c1ccc(-c2cccnc2-c2ccc(F)cc2)cc1 [Ab, reference compound]
Selectivity Ratio [2]: 0.45

CS(=O)(=O)c1ccc(-c2cc(Br)cnc2-c2cccnc2)cc1 [Example 32]
Selectivity Ratio [2]: >8.3

CS(=O)(=O)c1ccc(-c2cccnc2-c2ccccc2)cc1 [Aa, reference compound]
Rat Paw Edema (ED50, mg/kg) [1]: >10 mg/kg
IC50 [3]: > 10 µM

Cc1ccc(-c2ncc(Cl)cc2-c2ccc(S(C)(=O)=O)cc2)cn1 [Example 23, 5-Chloro-3-(4-methylsulfonyl)phenyl-2-(2-methyl-5-pyridinyl)pyridine]
ED50 [1]: 0.6 mg/kg
